According to patent US20220033397A1, “PHARMACEUTICAL COMPOUNDS AND THEIR USE AS INHIBITORS OF UBIQUITIN SPECIFIC PROTEASE 19 (USP19)” (ALMAC DISCOVERY LIMITED, priority 2018, published 2022):

These compounds were tested against T1, Full-length USP19 (Homo sapiens, UniProt O94966) (assay: USP19 fluorescence polarisation (FP) homogeneous assay with Ubiquitin-Lys-TAMRA substrate). Details: 2.5 nM USP19, 30 min pre-incubation, average of at least two duplicate experiments.
T1 construct: Full-length USP19 was purchased from Boston Biochem (E-576); purchased Boston Biochem E-576
T1 sequence (O94966 1-1318): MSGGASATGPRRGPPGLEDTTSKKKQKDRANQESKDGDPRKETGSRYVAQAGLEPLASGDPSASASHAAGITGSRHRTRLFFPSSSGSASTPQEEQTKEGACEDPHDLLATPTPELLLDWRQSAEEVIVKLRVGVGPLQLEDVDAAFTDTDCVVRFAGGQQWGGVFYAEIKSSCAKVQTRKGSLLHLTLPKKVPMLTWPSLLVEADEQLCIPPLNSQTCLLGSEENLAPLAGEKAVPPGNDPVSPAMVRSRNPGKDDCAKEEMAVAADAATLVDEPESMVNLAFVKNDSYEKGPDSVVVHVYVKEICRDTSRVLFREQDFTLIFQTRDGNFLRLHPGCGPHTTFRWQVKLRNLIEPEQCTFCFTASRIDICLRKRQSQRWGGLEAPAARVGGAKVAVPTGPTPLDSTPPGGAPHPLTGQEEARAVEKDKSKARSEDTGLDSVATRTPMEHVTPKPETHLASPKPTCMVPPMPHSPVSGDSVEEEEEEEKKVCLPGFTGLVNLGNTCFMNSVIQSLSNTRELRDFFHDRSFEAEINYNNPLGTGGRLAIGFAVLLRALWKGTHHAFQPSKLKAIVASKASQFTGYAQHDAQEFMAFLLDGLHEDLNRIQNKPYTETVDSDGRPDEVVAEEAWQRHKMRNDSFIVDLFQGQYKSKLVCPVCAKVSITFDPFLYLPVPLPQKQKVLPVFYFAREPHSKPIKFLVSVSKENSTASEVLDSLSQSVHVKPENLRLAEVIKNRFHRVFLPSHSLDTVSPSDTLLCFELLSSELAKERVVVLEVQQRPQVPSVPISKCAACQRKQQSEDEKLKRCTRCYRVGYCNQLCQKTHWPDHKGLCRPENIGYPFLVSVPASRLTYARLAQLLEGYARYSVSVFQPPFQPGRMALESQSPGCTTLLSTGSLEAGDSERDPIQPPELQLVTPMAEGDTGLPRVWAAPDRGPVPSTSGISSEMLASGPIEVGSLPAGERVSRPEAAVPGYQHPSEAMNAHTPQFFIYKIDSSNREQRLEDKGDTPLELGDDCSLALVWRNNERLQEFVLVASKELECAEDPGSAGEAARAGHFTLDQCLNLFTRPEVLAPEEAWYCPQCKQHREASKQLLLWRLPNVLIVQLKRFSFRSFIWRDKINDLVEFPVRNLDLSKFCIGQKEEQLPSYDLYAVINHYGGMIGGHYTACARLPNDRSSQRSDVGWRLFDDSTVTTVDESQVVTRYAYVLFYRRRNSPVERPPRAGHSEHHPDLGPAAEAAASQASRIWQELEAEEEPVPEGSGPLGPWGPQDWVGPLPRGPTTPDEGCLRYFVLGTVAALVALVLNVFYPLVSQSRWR
Format: biochemical
Procedure, shortened: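 Full-length USP19 preincubated 30 min at RT with inhibitor (200 μM to 2 μM series, 8–18 points) before adding 500 nM Ubiquitin-Lys-TAMRA substrate.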

| IC50 [µM] | Structure (SMILES) |
| --- | --- |
| < 0.5 | CC1(C)CN(C(=O)N2CCNC[C@H]2c2ccccc2)CC[C@@]1(O)Cn1ccc(-c2ccccc2)cc1=O [Example 288, 1-(((S)-4-Hydroxy-3,3-dimethyl-1-((R)-2-phenylpiperazine-1-carbonyl)piperidin-4-yl)methyl)-4-phenylpyridin-2(1H)-one] |
| < 0.5 | Cn1nccc1-c1cc(=O)n(C[C@]2(O)CCN(C(=O)N3CCNC[C@H]3c3ccccc3)CC23CCCC3)cn1 [Example 289, 3-(((S)-10-Hydroxy-7-((R)-2-phenylpiperazine-1-carbonyl)-7-azaspiro[4.5]decan-10-yl)methyl)-6-(1-methyl-1H-pyrazol-5-yl)pyrimidin-4(3H)-one] |
| < 0.5 | O=C(N1CC[C@@](O)(Cn2cnc(N3CCCC3)cc2=O)C2(CCCC2)C1)N1CCNC[C@H]1c1ccccc1 [Example 290, 3-(((S)-10-Hydroxy-7-((R)-2-phenylpiperazine-1-carbonyl)-7-azaspiro[4.5]decan-10-yl)methyl)-6-(pyrrolidin-1-yl)pyrimidin-4(3H)-one] |
| < 0.5 | Cn1cc(-c2cc(=O)n(C[C@]3(O)CCN(C(=O)N4CCNC[C@H]4c4ccccc4)CC34CCCC4)cn2)cn1 [Example 291, 3-(((S)-10-Hydroxy-7-((R)-2-phenylpiperazine-1-carbonyl)-7-azaspiro[4.5]decan-10-yl)methyl)-6-(1-methyl-1H-pyrazol-4-yl)pyrimidin-4(3H)-one] |
| < 0.5 | O=C(N1CC[C@@](O)(Cn2cnc(C3CC3)cc2=O)C2(CCCC2)C1)N1CCNC[C@H]1c1ccccc1 [Example 292, 6-Cyclopropyl-3-(((S)-10-hydroxy-7-((R)-2-phenylpiperazine-1-carbonyl)-7-azaspiro[4.5]decan-10-yl)methyl)pyrimidin-4(3H)-one] |
| 50 to 250 | O=C(N1CC[C@@](O)(Cn2cnc(-c3ccccc3)cc2=O)C2(CCCC2)C1)N1CCOC[C@H]1c1nc2ccccc2[nH]1 [Example 293, 3-(((S)-7-((R)-3-(1H-Benzo[d]imidazol-2-yl)morpholine-4-carbonyl)-10-hydroxy-7-azaspiro[4.5]decan-10-yl)methyl)-6-phenylpyrimidin-4(3H)-one] |
| < 0.5 | O=C(N[C@H](c1ccccc1)C(F)(F)F)N1CC[C@@](O)(Cn2cnc(-c3ccccc3)cc2=O)C2(CCCC2)C1 [Example 294, (S)-10-Hydroxy-10-((6-oxo-4-phenylpyrimidin-1(6H)-yl)methyl)-N—((R)-2,2,2-trifluoro-1-phenylethyl)-7-azaspiro[4.5]decane-7-carboxamide] |
| 0.5 to 5 | O=C(N1CCC(O)(Cn2cnc(-c3ccccc3)cc2=O)CC1)N1CCOC[C@H]1c1ccccc1 [Example 295, (R)-3-((4-Hydroxy-1-(3-phenylmorpholine-4-carbonyl)piperidin-4-yl)methyl)-6-phenylpyrimidin-4(3H)-one] |
| < 0.5 | O=C(N1CCC(O)(Cn2cnc(-c3ccccc3)cc2=O)C2(CCCCC2)C1)N1CCOC[C@H]1c1ccccc1 (stereo partly drawn) [Example 296, 3-((5-Hydroxy-2-((R)-3-phenylmorpholine-4-carbonyl)-2-azaspiro[5.5]undecan-5-yl)methyl)-6-phenylpyrimidin-4(3H)-one] |
| < 0.5 | O=C(N1CCC(O)(Cn2cnc(-c3ccccc3)cc2=O)CC1)N1CCNC[C@H]1c1ccccc1 [Example 297, (R)-3-((4-Hydroxy-1-(2-phenylpiperazine-1-carbonyl)piperidin-4-yl)methyl)-6-phenylpyrimidin-4(3H)-one] |
| < 0.5 | O=C(N1CCC(O)(Cn2cnc(-c3ccccc3)cc2=O)C2(CCCCC2)C1)N1CCNC[C@H]1c1ccccc1 (stereo partly drawn) [Example 298, 3-((5-Hydroxy-2-((R)-2-phenylpiperazine-1-carbonyl)-2-azaspiro[5.5]undecan-5-yl)methyl)-6-phenylpyrimidin-4(3H)-one] |
| 0.5 to 5 | O=C(N1CC[C@@](O)(Cn2cnc(-c3ccccc3)cc2=O)C2(CCCC2)C1)N1CCCN1c1ccccc1 [Example 299, (S)-3-((10-Hydroxy-7-(2-phenylpyrazolidine-1-carbonyl)-7-azaspiro[4.5]decan-10-yl)methyl)-6-phenylpyrimidin-4(3H)-one] |
| < 0.5 | Cc1cc(=O)n(C[C@]2(O)CCN(C(=O)N3CCNC[C@H]3c3ccccc3)CC23CCCC3)cn1 [Example 300, 3-(((S)-10-Hydroxy-7-((R)-2-phenylpiperazine-1-carbonyl)-7-azaspiro[4.5]decan-10-yl)methyl)-6-methylpyrimidin-4(3H)-one] |
| < 0.5 | O=C(NCc1cccc(F)c1F)N1CC[C@@](O)(Cn2cnc(-c3ccccc3)cc2=O)C2(CCCC2)C1 [Example 301, (S)—N-(2,3-Difluorobenzyl)-10-hydroxy-10-((6-oxo-4-phenylpyrimidin-1(6H)-yl)methyl)-7-azaspiro[4.5]decane-7-carboxamide] |
| < 0.5 | O=C(NCc1c(F)cccc1F)N1CC[C@@](O)(Cn2cnc(-c3ccccc3)cc2=O)C2(CCCC2)C1 [Example 302, (S)—N-(2,6-Difluorobenzyl)-10-hydroxy-10-((6-oxo-4-phenylpyrimidin-1(6H)-yl)methyl)-7-azaspiro[4.5]decane-7-carboxamide] |
| < 0.5 | O=C(NCc1ccc(F)cc1F)N1CC[C@@](O)(Cn2cnc(-c3ccccc3)cc2=O)C2(CCCC2)C1 [Example 303, (S)—N-(2,4-Difluorobenzyl)-10-hydroxy-10-((6-oxo-4-phenylpyrimidin-1(6H)-yl)methyl)-7-azaspiro[4.5]decane-7-carboxamide] |
| < 0.5 | O=C(NCc1ccc(F)c(F)c1)N1CC[C@@](O)(Cn2cnc(-c3ccccc3)cc2=O)C2(CCCC2)C1 [Example 304, (S)—N-(3,4-Difluorobenzyl)-10-hydroxy-10-((6-oxo-4-phenylpyrimidin-1(6H)-yl)methyl)-7-azaspiro[4.5]decane-7-carboxamide] |
| < 0.5 | O=C(N1CCC(O)(Cn2cnc(-c3ccccc3)cc2=O)C2(CCC2)C1)N1CCOC[C@H]1c1ccccc1 (stereo partly drawn) [Example 305, 3-((9-Hydroxy-6-((R)-3-phenylmorpholine-4-carbonyl)-6-azaspiro[3.5]nonan-9-yl)methyl)-6-phenylpyrimidin-4(3H)-one] |
| < 0.5 | O=C(N1CCC(O)(Cn2cnc(-c3ccccc3)cc2=O)C2(CCC2)C1)N1CCNC[C@H]1c1ccccc1 (stereo partly drawn) [Example 306, 3-((9-Hydroxy-6-((R)-2-phenylpiperazine-1-carbonyl)-6-azaspiro[3.5]nonan-9-yl)methyl)-6-phenylpyrimidin-4(3H)-one] |
| < 0.5 | O=C(NCC1CC(F)(F)C1)N1CC[C@@](O)(Cn2cnc(-c3ccccc3)cc2=O)C2(CCCC2)C1 [Example 307, (S)—N-((3,3-Difluorocyclobutyl)methyl)-10-hydroxy-10-((6-oxo-4-phenylpyrimidin-1(6H)-yl)methyl)-7-azaspiro[4.5]decane-7-carboxamide] |
| 0.5 to 5 | O=C(NC(C(F)(F)F)C(F)(F)F)N1CC[C@@](O)(Cn2cnc(-c3ccccc3)cc2=O)C2(CCCC2)C1 [Example 308, (S)—N-(1,1,1,3,3,3-Hexafluoropropan-2-yl)-10-hydroxy-10-((6-oxo-4-phenylpyrimidin-1(6H)-yl)methyl)-7-azaspiro[4.5]decane-7-carboxamide] |
| < 0.5 | O=C(N[C@H](c1ccccc1)C(F)(F)F)N1CC[C@@](O)(Cn2ccc(-c3ccccc3)cc2=O)C2(CCCC2)C1 [Example 309, (S)-10-Hydroxy-10-((2-oxo-4-phenylpyridin-1(2H)-yl)methyl)-N—((R)-2,2,2-trifluoro-1-phenylethyl)-7-azaspiro[4.5]decane-7-carboxamide] |
| < 0.5 | CC1(C)CN(C(=O)N2CCOC[C@H]2c2ccccc2)CC[C@@]1(O)Cn1cnc(-c2ccccc2)cc1=O [Example 310, 3-(((S)-4-Hydroxy-3,3-dimethyl-1-((R)-3-phenylmorpholine-4-carbonyl)piperidin-4-yl)methyl)-6-phenylpyrimidin-4(3H)-one] |
| 0.5 to 5 | O=C(NCC1(F)CC1)N1CC[C@@](O)(Cn2cnc(-c3ccccc3)cc2=O)C2(CCCC2)C1 [Example 311, (S)—N-((1-Fluorocyclopropyl)methyl)-10-hydroxy-10-((6-oxo-4-phenylpyrimidin-1(6H)-yl)methyl)-7-azaspiro[4.5]decane-7-carboxamide] |
